Laboratory results reported in patent US10744128B2, “6-(5-membered heteroaryl)isoquinolin-3-yl-(5-membered heteroaryl) carboxamides and preparation and use thereof” (Samumed, LLC, priority 2017, dated 2020).
Where two headings read alike, the source gives them in different places.

Experiments:
[1] = system: Wnt-responsive promoter (Sp5-Luc reporter) in SW480 colon carcinoma cells; assay: Sp5-Luc reporter gene screening assay for Wnt activity in SW480 cells; type: cell-based, human; details: 36 to 48 hours, luminescence
Source text: The screening assay for Wnt activity is described as follows. Reporter cell lines can be generated by stably transducing cancer cell lines (e.g., colon cancer) or primary cells (e.g., IEC-6 intestinal cells) with a lentiviral construct that includes a Wnt-responsive promoter driving expression of the firefly luciferase gene.
SW480 colon carcinoma cells were transduced with a lentiviral vector expressing luciferase with a human Sp5 promoter consisting of a sequence of eight TCF/LEF binding sites. SW480 cells stably expressing the Sp5-Luc reporter gene and a hygromycin resistance gene were selected by treatment with 150 μg/mL of hygromycin for 7 days. These stably transduced SW480 cells were expanded in cell culture and used for all further screening activities. […] For Sp5-Luc reporter gene assays, the cells were plated at 4,000 cells/well in 384-well plates with a DMEM medium containing 1% fetal bovine serum, and 1% Penicillin-Streptomycin and incubated for 36 to 48 hours at 37° C. and 5% CO2. Following incubation, 15 μl of BriteLite Plus luminescence reagent (Perkin Elmer) was added to each well of the 384-well assay plates. The plates were placed on an orbital shaker for 2 min and then luminescence was quantified using the Envision (Perkin Elmer) plate reader. Readings were normalized to DMSO only treated cells, and normalized activities were utilized for EC50 calculations using the dose-response log (inhibitor) vs. response −variable slope (four parameters) nonlinear regression feature available in GraphPad Prism 5.0 (or Dotmatics).

recombinant GSK3β kinase = recombinant GSK3β kinase (Homo sapiens (Human), UniProt P49841); assay: GSK3β kinase assay (Ser/Thr 09 peptide Z-lyte, FRET); type: biochemical
[2] = system: SW480 colon carcinoma cells; assay: Cell viability assay (CellTiter-Glo) in SW480 cells; type: cell-based, human; details: four days
Description: SW480 colon carcinoma cells were transduced with a lentiviral vector expressing luciferase with a human Sp5 promoter consisting of a sequence of eight TCF/LEF binding sites. SW480 cells stably expressing the Sp5-Luc reporter gene and a hygromycin resistance gene were selected by treatment with 150 µg/mL of hygromycin for 7 days. These stably transduced SW480 cells were expanded in cell culture and used for all further screening activities.
For the Cell Viability Assays, the cells were plated at 2,000 cells/well in 384-well plates with a DMEM medium containing 1% fetal bovine serum, and 1% Penicillin-Streptomycin and incubated for […] at 37° C. and 5% CO2. Eight replicates of DMSO-treated cells served as controls and cells treated with compound were performed in duplicate.
After incubation, 10 μL of CellTiter-Glo (Promega) was added to each well allowed to incubate for approximately 12 minutes. This reagent “results in cell lysis and generation of a luminescent signal proportional to the amount of ATP present. The amount of ATP is directly proportional to the number of cells present in culture, in agreement with previous reports. The CellTiter-Glo® Assay generates a “glow-type” luminescent signal, produced by the luciferase reaction (Promega.com)”.

[3] = system: primary human fibroblasts derived from IPF patients (LL29 cells), α-smooth muscle actin; assay: Inhibition of fibrotic process: αSMA in TGF-β1 treated LL29 fibroblasts; type: cell-based; details: for EC50: LL29 cells, TGF-β1 20 ng/mL, 4 days, % cells positive for αSMA
Description: Representative compounds were screened using primary human fibroblasts (derived from IPF patients) treated with TGF-β1 to determine their ability to inhibit the fibrotic process.
LL29 cells were plated at 1,500 cells/well in 70 μL/well F12 medium supplemented with 1% Fetal Bovine Serum. […] Wells treated with TGF-β1 and containing DMSO were used as positive control, and cells with only DMSO were negative control. […] Following incubation for 4 days, SYTOX green nucleic acid stain (Life Technologies [Thermo Fisher Scientific]) was added to the wells at a final concentration of 1 μM and incubated at room temperature for 30 min.

IL-6 = IL-6 inhibition in LPS-stimulated human peripheral blood mononuclear cells (HTRF); type: cell-based; details: for EC50: huPBMCs, LPS 50 ng/mL, 22 hours, IL-6 HTRF; for inhibition at 10 µM: read-out: percent inhibition at 10 μM
Description: Fresh Normal PB MNC (Catalog # PB001, AllCells, Alameda, Calif.) were shipped overnight at 4° C. and resuspended in Roswell Park Memorial Institute (RPMI) 1640 Medium, with GlutaMAX Supplement (Catalog #61870127, ThermoFisher Scientific, Waltham, Mass.) supplemented with 1% Penicillin-Streptomycin (Catalog #15140163, ThermoFisher Scientific, Waltham, Mass.) and 1% fetal bovine serum (FBS) (Catalog #16140089, ThermoFisher Scientific, Waltham, Mass.) assay media.
Fresh normal human peripheral blood mononuclear cells (huPBMCs) were resuspended in 1% FBS-RPMI assay media with 1% Penicillin-Streptomycin 1% to a cell concentration of 1×10e6 cells/mL. […] 50 ng/mL of Lipopolysaccharides from Escherichia coli 0111:B4 (Catalog #L5293-2ML, Sigma-Aldrich, St. Louis, Mo.) was added after 2 hours and cells were incubated for another 22 hours at 37° C.-5% CO2. After 22 hour incubation, a mixture of anti-IL6 XL665 and anti-IL-6 Cryptate diluted in reconstitution buffer (Catalog #62IL6PEC, Cisbio Inc., Bedford, Mass.) was added to each well. Following incubation for 3 hours at room temperature, Homogeneous Time-Resolved Fluorescence (HTRF) was measured using the Envision (Perkin Elmer, Shelton, Conn.) at 665 nm and […]. The ratio of fluorescence at 665 nm to 620 nm was used as a readout for IL-6 quantification. All samples were processed in duplicate. Readings were normalized to DMSO treated cells and normalized activities were utilized for EC50 calculations. EC50 was determined using software generated by Dotmatics Limited (Windhill Bishops Stortford Herts, UK) using the Levenberg-Marquardt 4 parameter fitting procedure with finite different gradients.

[4] = biological target: recombinant DYRK1A kinase (Homo sapiens (Human), UniProt Q13627); assay: DYRK1A kinase assay (Ser/Thr 18 peptide Z-lyte, FRET)
Description: Each compound was dissolved in DMSO as a 10 mM stock and used to prepare compound source plates.
This is a non-radioactive assay using fluorescence resonance energy transfer (FRET) between coumarin and fluorescein to detect kinase activity which is represented as a ratio of coumarin emission/fluorescein emission.
The mixture was allowed to incubate with the representative compounds for one hour at room temperature. All reactions were performed in duplicate. Unphosphorylated (“0% Control”) and phosphorylated (“100% control”) forms of Ser/Thr 18 served as control reactions. Additionally, an 11-point dose-response curve of Staurosporine (1 uM top) was run to serve as a positive compound control.
After incubation, Development Reagent A was diluted in Development Buffer then added to the reaction and allowed to further incubate for one hour at room temperature.
Dose-response curves were generated and inhibitory concentration (IC50) values were calculated using non-linear regression curve fit in the Dotmatics' Studies Software (Bishops Stortford, UK).

[5] = GSK3β kinase, 46 μM ATP, one hour, method calls values IC50
[6] = DYRK1A kinase, 30 μM ATP, one hour, method calls values IC50

Chain of recombinant GSK3β kinase (P49841 whole entry): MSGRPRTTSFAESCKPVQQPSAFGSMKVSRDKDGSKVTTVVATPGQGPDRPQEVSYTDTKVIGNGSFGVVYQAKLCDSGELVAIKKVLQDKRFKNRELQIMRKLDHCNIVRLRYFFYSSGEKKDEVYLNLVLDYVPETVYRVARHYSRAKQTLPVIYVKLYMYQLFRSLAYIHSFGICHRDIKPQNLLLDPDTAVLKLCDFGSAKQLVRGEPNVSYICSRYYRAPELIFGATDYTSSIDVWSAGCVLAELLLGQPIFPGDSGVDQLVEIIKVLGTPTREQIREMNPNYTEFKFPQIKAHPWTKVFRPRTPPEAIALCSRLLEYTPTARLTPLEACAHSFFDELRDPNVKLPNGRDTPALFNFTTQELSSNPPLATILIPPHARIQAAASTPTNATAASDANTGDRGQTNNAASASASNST

| Compound | EC50 [1] [nM] | EC50 (recombinant GSK3β kinase; [5]) [nM] | EC50 [2] [nM] | EC50 (IL-6) [nM] | EC50 [4, 6] [nM] | EC50 ([1]; Homo sapiens) [nM] | EC50 ([2]; Homo sapiens, 96 h) [nM] | EC50 (IL-6; Homo sapiens, PBMC) [nM] | EC50 (recombinant GSK3β kinase) [nM] | EC50 [4] [nM] | EC50 [3] [nM] | EC50 ([3]; Homo sapiens, Fibroblast, 96 h) [nM] | inhibition at 10 µM ([3]; Homo sapiens, Fibroblast, read-out: percent inhibition at 10 μM) [%] | inhibition at 10 µM (IL-6; Homo sapiens, PBMC) [%] |
| --- | --- | --- | --- | --- | --- | --- | --- | --- | --- | --- | --- | --- | --- | --- |
| 2-(1-Isopropylpiperidin-4-yl)-N-(6-(1-methyl-1H-pyrazol-4-yl)isoquinolin-3-yl)thiazole-4-carboxamide [Compound 39] | 70 | 3710 | 1190 | 7590 | 26 |  |  |  |  |  | 3040 |  |  |  |
| CC(C)n1cc(C(=O)Nc2cc3cc(-c4cnn(C5CCN(C)CC5)c4)ccc3cn2)cn1 [Compound 1, 1-Isopropyl-N-(6-(1-(1-methylpiperidin-4-yl)-1H-pyrazol-4-yl)isoquinolin-3-yl)-1H-pyrazole-4-carboxamide] |  | 9990 |  |  | 39 | 387 | 608 | 3440 |  |  |  | 953 |  |  |
| Cn1cc(-c2ccc3cnc(NC(=O)c4cn(C5CCNCC5)nn4)cc3c2)cn1 [Compound 11, N-(6-(1-Methyl-1H-pyrazol-4-yl)isoquinolin-3-yl)-1-(piperidin-4-yl)-1H-1,2,3-triazole-4-carboxamide] |  | 9990 |  |  | 7 |  | 273 | 2630 |  |  |  | 607 |  |  |
| CN1CCC(n2cc(C(=O)Nc3cc4cc(-c5cnn(C)c5)ccc4cn3)nn2)CC1 [Compound 12, N-(6-(1-Methyl-1H-pyrazol-4-yl)isoquinolin-3-yl)-1-(1-methylpiperidin-4-yl)-1H-1,2,3-triazole-4-carboxamide] |  | 3630 |  |  | 9 | 105 | 470 | 3750 |  |  |  | 983 |  |  |
| Cn1cc(-c2ccc3cnc(NC(=O)c4cn(C5CCN(CCF)CC5)nn4)cc3c2)cn1 [Compound 13, 1-(1-(2-Fluoroethyl)piperidin-4-yl)-N-(6-(1-methyl-1H-pyrazol-4-yl)isoquinolin-3-yl)-1H-1,2,3-triazole-4-carboxamide] |  | 2080 |  |  | 5 | 120 | 485 | 3390 |  |  |  | 260 |  |  |
| CC(C)N1CCC(n2cc(C(=O)Nc3cc4cc(-c5cnn(C)c5)ccc4cn3)nn2)CC1 [Compound 14, 1-(1-Isopropylpiperidin-4-yl)-N-(6-(1-methyl-1H-pyrazol-4-yl)isoquinolin-3-yl)-1H-1,2,3-triazole-4-carboxamide] |  | 2750 |  |  | 6 | 95 | 240 | > 10000 |  |  |  | 410 |  | 46 |
| [2H]C([2H])([2H])n1cc(-c2ccc3cnc(NC(=O)c4coc(C5CCNCC5)n4)cc3c2)cn1 [Compound 16, N-(6-(1-(Methyl-d3)-1H-pyrazol-4-yl)isoquinolin-3-yl)-2-(piperidin-4-yl) oxazole-4-carboxamide] |  |  |  |  |  | 115 | 113 | 1070 | 769 | 16 |  | 312 |  |  |
| Cn1cc(-c2ccc3cnc(NC(=O)c4coc(C5CCN(CCF)CC5)n4)cc3c2)cn1 [Compound 21, 2-(1-(2-Fluoroethyl)piperidin-4-yl)-N-(6-(1-methyl-1H-pyrazol-4-yl)isoquinolin-3-yl)oxazole-4-carboxamide] |  | 1330 |  |  | 16 |  | 1260 | > 10000 |  |  |  | 9620 |  | 27.2 |

Continued by falling EC50 ([2]; Homo sapiens, 96 h), values first:

| EC50 [1] [nM] | EC50 (recombinant GSK3β kinase; [5]) [nM] | EC50 [2] [nM] | EC50 (IL-6) [nM] | EC50 [4, 6] [nM] | EC50 ([1]; Homo sapiens) [nM] | EC50 ([2]; Homo sapiens, 96 h) [nM] | EC50 (IL-6; Homo sapiens, PBMC) [nM] | EC50 (recombinant GSK3β kinase) [nM] | EC50 [4] [nM] | Compound | EC50 [3] [nM] | EC50 ([3]; Homo sapiens, Fibroblast, 96 h) [nM] | inhibition at 10 µM ([3]; Homo sapiens, Fibroblast, read-out: percent inhibition at 10 μM) [%] | inhibition at 10 µM (IL-6; Homo sapiens, PBMC) [%] |
| --- | --- | --- | --- | --- | --- | --- | --- | --- | --- | --- | --- | --- | --- | --- |
|  | 1660 |  |  | 2 | 39 | 104 | 1100 |  |  | Cn1cc(-c2ccc3cnc(NC(=O)c4cnn(C5CCN(C6CC6)CC5)c4)cc3c2)cn1 [Compound 9, 1-(1-cyclopropylpiperidin-4-yl)-N-(6-(1-methyl-1H-pyrazol-4-yl)isoquinolin-3-yl)-1H-pyrazole-4-carboxamide] |  | > 10000 | 33.4 |  |
|  | 1500 |  |  | 3 | 35 | 77 | 145 |  |  | Cn1cc(-c2ccc3cnc(NC(=O)c4cnn(C5CCN(CCF)CC5)c4)cc3c2)cn1 [Compound 7, 1-(1-(2-Fluoroethyl)piperidin-4-yl)-N-(6-(1-methyl-1H-pyrazol-4-yl)isoquinolin-3-yl)-1H-pyrazole-4-carboxamide] |  | 47 |  |  |
|  |  |  |  |  | 23 | 38 | 1040 | > 10000 | 3 | [2H]C([2H])([2H])n1cc(-c2ccc3cnc(NC(=O)c4cnn(C5CCNCC5)c4)cc3c2)cn1 [Compound 3, N-(6-(1-(Methyl-d3)-1H-pyrazol-4-yl)isoquinolin-3-yl)-1-(piperidin-4-yl)-1H-pyrazole-4-carboxamide] |  | 74 |  |  |
|  | 1480 |  |  | 2 | 14 | 35 | 89 |  |  | CN1CCC(n2cc(C(=O)Nc3cc4cc(-c5cnn(C)c5)ccc4cn3)cn2)CC1 [Compound 4, N-(6-(1-Methyl-1H-pyrazol-4-yl)isoquinolin-3-yl)-1-(1-methylpiperidin-4-yl)-1H-pyrazole-4-carboxamide] |  | 94 |  |  |
|  |  |  |  |  | 22 | 34 | 218 | 2060 | 2 | [2H]C([2H])([2H])n1cc(-c2ccc3cnc(NC(=O)c4cnn(C5CCN(C)CC5)c4)cc3c2)cn1 [Compound 5, N-(6-(1-(Methyl-d3)-1H-pyrazol-4-yl)isoquinolin-3-yl)-1-(1-methylpiperidin-4-yl)-1H-pyrazole-4-carboxamide] |  | 84 |  |  |
|  | 1700 |  |  | 3 | 15 | 32 | 129 |  |  | CCN1CCC(n2cc(C(=O)Nc3cc4cc(-c5cnn(C)c5)ccc4cn3)cn2)CC1 [Compound 6, 1-(1-Ethylpiperidin-4-yl)-N-(6-(1-methyl-1H-pyrazol-4-yl)isoquinolin-3-yl)-1H-pyrazole-4-carboxamide] |  | 69 |  |  |
